What was measured:
Settings in all cases: 72 h
[1] = system: myeloid leukemia patient primary cells Pat.9; assay: area under dose-response curve (viability, 1 nM-10 uM) (fraction (0-1)); higher = more sensitive
Procedure: (§1)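 AUC (0–1, higher = more sensitive) of the 5-point dose–response (1 nM–10 µM, 72 h, CellTiter-Glo) in primary AML/CML patient mononuclear cells. 0.030103 is the floor for inactive compounds.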

[2] = system: myeloid leukemia patient primary cells Pat.8; assay: as above
Procedure: as §1

[3] = system: myeloid leukemia patient primary cells Pat.3; assay: as above
Procedure: as §1

[4] = system: myeloid leukemia patient primary cells Pat.11; assay: as above
Procedure: as §1

[5] = system: myeloid leukemia patient primary cells Pat.2; assay: as above
Procedure: as §1

[6] = system: myeloid leukemia patient primary cells Pat.4; assay: as above
Procedure: as §1

[7] = system: myeloid leukemia patient primary cells Pat.7; assay: as above
Procedure: as §1

[8] = system: myeloid leukemia patient primary cells Pat.1; assay: as above
Procedure: as §1

[9] = system: myeloid leukemia patient primary cells Pat.6; assay: as above
Procedure: as §1

[10] = system: myeloid leukemia patient primary cells Pat.14; assay: as above
Procedure: as §1

[11] = system: myeloid leukemia patient primary cells Pat.12; assay: as above
Procedure: as §1

[12] = system: myeloid leukemia patient primary cells Pat.15; assay: as above
Procedure: as §1

[13] = system: myeloid leukemia patient primary cells Pat.5; assay: as above
Procedure: as §1

[14] = system: myeloid leukemia patient primary cells Pat.13; assay: as above
Procedure: as §1

[15] = system: myeloid leukemia patient primary cells Pat.10; assay: as above
Procedure: as §1

[16] = system: myeloid leukemia patient primary cells Pat.9; assay: cell viability (% survival relative to DMSO control); higher = less cytotoxic
In short: (§2)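 Where an area under the curve appears, it was computed with the drc and PharmacoGx R packages from log-logistic fits. Those fits used four parameters. The underlying viability data came from CellTiter-Glo after 72 h, normalised to DMSO and 10 μM proteasome-inhibitor wells, with thawed, Ficoll-purified AML or CML patient mononuclear cells at 10,000 cells/well in RPMI 1640 with 10% FBS on 384-well plates pre-printed with 70 compounds at five tenfold concentrations (1–10,000 nM) in duplicate.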

[17] = system: myeloid leukemia patient primary cells Pat.11; assay: as above
In short: as §2

[18] = system: myeloid leukemia patient primary cells Pat.2; assay: as above
In short: as §2

[19] = system: myeloid leukemia patient primary cells Pat.1; assay: as above
In short: as §2

[20] = system: myeloid leukemia patient primary cells Pat.5; assay: as above
In short: as §2

[21] = system: myeloid leukemia patient primary cells Pat.13; assay: as above
In short: as §2

HL-60 [22] = assay: cell viability (% survival relative to DMSO control); higher = less cytotoxic
In short: (§3)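 In 384-well plates, the full library was rescreened in duplicate on HL-60 cells in RPMI 1640 with 10% FBS, at 1–10,000 nM in five tenfold concentrations, for 72 h at 37 °C, 5% CO2. Each run also held DMSO or 100 nM of one of three metabolic inhibitors. Viability was measured by CellTiter-Glo and normalised to DMSO wells and to wells with proteasome inhibitor, present at 10 μM. Any area under the curve comes from four-parameter log-logistic fitting with drc and PharmacoGx.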

HL-60 [23] = assay: area under dose-response curve (viability, 1 nM-10 uM) (fraction (0-1)); higher = more sensitive
In short: as §3

Clc1cc(Cl)c(OCC#CI)cc1Cl [Haloprogin]
Settings	area under dose-response curve
[1]	0.505
[2]	0.175
[3]	0.388
[4]	0.166
[5]	0.209
[6]	0.323
[7]	0.356
[8]	0.258
[9]	0.238
[10]	0.427
[11]	0.204
[12]	0.183
[13]	0.677
[14]	0.152
[15]	0.411

Settings	area under dose-response curve, co-treatment: AZD3965 100 nM	area under dose-response curve, co-treatment: DMSO vehicle	area under dose-response curve, co-treatment: GSK2194069 100 nM	area under dose-response curve, co-treatment: pictilisib 100 nM	cell viability, 1 nM [%]	cell viability, 10 nM [%]	cell viability, 100 nM [%]	cell viability, 1000 nM [%]	cell viability, 10000 nM [%]
HL-60 [23]	0.125	0.032	< 0.0301	0.0952	–	–	–	–	–
[16]	–	–	–	–	80.9	62.4	43.4	3.45	3.68
[17]	–	–	–	–	94.1	> 100	96	81.8	1.14
[18]	–	–	–	–	93.8	96.9	92.1	65	< 0
[19]	–	–	–	–	91.8	99.9	82	48.3	14.1
[20]	–	–	–	–	87.2	69.7	2.24	< 0	0.912
[21]	–	–	–	–	88.1	86	91	67.8	26.3

cell viability [%], HL-60 [22]
Settings	0.001 µM	0.01 µM	0.1 µM	1 µM	10 µM
co-treatment: AZD3965 100 nM	103	102	104	99.73	3.01
co-treatment: DMSO vehicle	102	103	106	104	57.3
co-treatment: GSK2194069 100 nM	95.5	107	96.4	105	71.4
co-treatment: pictilisib 100 nM	92.6	96.3	107	105	14.4
